Tests used:
Assay in all cases: relative viability (nuclei count vs DMSO), 5 days (fraction); higher = more cells survive
BI-D1870 + Bortezomib = compound: CC(C)CCN1c2nc(Nc3cc(F)c(O)c(F)c3)ncc2N(C)C(=O)C1C [BI-D1870] + CC(C)C[C@H](NC(=O)[C@H](Cc1ccccc1)NC(=O)c1cnccn1)B(O)O [Bortezomib] (partner 0.002 µM)
How it was run: (§1)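 A single step with final 0.05% Triton X-100, 1% formaldehyde and 1 ug/ml Hoechst fixed the cells and stained nuclei 5 days after treatment. Lung cancer cell lines in 1536-well plates had been treated by pin tool the day after seeding with one drug alone or a fixed anchor-drug dose plus five library-drug doses (not always all listed) in √10 steps, and nuclei were counted on 4× images. Relative viability is the ratio of nuclei in treated wells to nuclei in vehicle wells, taken as the median of duplicate plates.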

BI-D1870 + Navitoclax = compound: CC(C)CCN1c2nc(Nc3cc(F)c(O)c(F)c3)ncc2N(C)C(=O)C1C [BI-D1870] + CC1(C)CCC(c2ccc(Cl)cc2)=C(CN2CCN(c3ccc(C(=O)NS(=O)(=O)c4ccc(N[C@H](CCN5CCOCC5)CSc5ccccc5)c(S(=O)(=O)C(F)(F)F)c4)cc3)CC2)C1 [Navitoclax] (partner 0.5 µM)
How it was run: as §1

BI-D1870 + Pemetrexed = compound: CC(C)CCN1c2nc(Nc3cc(F)c(O)c(F)c3)ncc2N(C)C(=O)C1C [BI-D1870] + Nc1nc2[nH]cc(CCc3ccc(C(=O)N[C@@H](CCC(=O)O)C(=O)O)cc3)c2c(=O)[nH]1 [Pemetrexed] (partner 0.2 µM)
How it was run: as §1

Zebularine + Phenformin = compound: O=c1ncccn1[C@@H]1O[C@H](CO)[C@@H](O)[C@H]1O [Zebularine] + N=C(N)NC(=N)NCCc1ccccc1 [Phenformin] (partner 250 µM)
How it was run: as §1

| Cell Line | relative viability (BI-D1870 + Bortezomib; first compound 0.04 µM) | relative viability (BI-D1870 + Bortezomib; first compound 0.1265 µM) | relative viability (BI-D1870 + Bortezomib; first compound 0.4 µM) | relative viability (BI-D1870 + Bortezomib; first compound 1.265 µM) | relative viability (BI-D1870 + Bortezomib; first compound 4 µM) | relative viability (BI-D1870 + Navitoclax; first compound 0.04 µM) | relative viability (BI-D1870 + Navitoclax; first compound 0.1265 µM) | relative viability (BI-D1870 + Navitoclax; first compound 0.4 µM) | relative viability (BI-D1870 + Navitoclax; first compound 1.265 µM) | relative viability (BI-D1870 + Navitoclax; first compound 4 µM) | relative viability (BI-D1870 + Pemetrexed; first compound 0.04 µM) | relative viability (BI-D1870 + Pemetrexed; first compound 0.1265 µM) | relative viability (BI-D1870 + Pemetrexed; first compound 0.4 µM) | relative viability (BI-D1870 + Pemetrexed; first compound 1.265 µM) | relative viability (BI-D1870 + Pemetrexed; first compound 4 µM) | relative viability (Zebularine + Phenformin; first compound 1 µM) | relative viability (Zebularine + Phenformin; first compound 3.162 µM) | relative viability (Zebularine + Phenformin; first compound 10 µM) | relative viability (Zebularine + Phenformin; first compound 31.62 µM) | relative viability (Zebularine + Phenformin; first compound 100 µM) |
| --- | --- | --- | --- | --- | --- | --- | --- | --- | --- | --- | --- | --- | --- | --- | --- | --- | --- | --- | --- | --- |
| ChaGo-K-1 | 1.03 | 1.05 | 0.608 | 0.942 | 0.933 | 0.94 | 0.976 | 0.808 | 1.03 | 0.654 | 0.255 | 0.245 | 0.253 | 0.242 | 0.235 | 0.51 | 0.458 | 0.278 | 0.25 | 0.204 |
| EBC-1 | 0.685 | 0.435 | 0.417 | 0.323 | 0.123 | 0.433 | 0.424 | 0.367 | 0.194 | 0.134 | – | – | – | – | – | – | – | – | – | – |
| EKVX | 1.14 | 1.1 | 0.938 | 1.15 | 1.05 | 1.01 | 0.909 | 0.889 | 1 | 0.922 | 0.399 | 0.418 | 0.359 | 0.67 | 0.391 | 0.238 | 0.248 | 0.218 | 0.238 | 0.251 |
| EMC-BAC-2 | 1.18 | 0.964 | 1.02 | 1.09 | 1.05 | 1.24 | 1.06 | 1.09 | 1.21 | 1.18 | 0.457 | 0.456 | 0.421 | 0.541 | 0.46 | 0.656 | 0.569 | 0.334 | 0.662 | 0.516 |
| EPLC-272H | 0.887 | 0.99 | 1.01 | 1.1 | 0.772 | 1.3 | 0.932 | 1.05 | 1.24 | 1.03 | 0.325 | 0.355 | 0.242 | 0.295 | 0.202 | 0.272 | 0.286 | 0.227 | 0.255 | 0.238 |
| H3255 | 0.67 | 0.779 | 0.769 | 0.969 | 0.748 | 0.688 | 0.598 | 0.56 | 0.595 | 0.468 | 0.57 | 0.563 | 0.584 | 0.584 | 0.526 | 0.34 | 0.369 | 0.361 | 0.401 | 0.353 |
| HARA | 1.03 | 1.03 | 1.22 | 1.18 | 0.943 | 1.2 | 1.13 | 1.16 | 1.23 | 1.08 | 0.234 | 0.227 | 0.267 | 0.243 | 0.218 | 0.506 | – | – | 0.436 | 0.272 |
| HCC-15 | 1.03 | 1.01 | 0.922 | 1.04 | 0.863 | 0.685 | 0.656 | 0.681 | 0.721 | 0.459 | 0.222 | 0.23 | 0.229 | 0.215 | 0.187 | 0.532 | 0.496 | 0.247 | 0.417 | 0.308 |
| HCC-44 | 1.08 | 0.965 | 0.909 | 0.941 | 0.99 | 1.04 | 0.944 | 0.999 | 1.1 | 0.847 | 0.653 | 0.631 | 0.632 | 0.75 | 0.689 | 0.255 | 0.212 | 0.145 | 0.144 | 0.157 |

— the supplement of paper PMC10307832
